We go through 15 compounds from patent EP0525768A1, “Tetralones with pharmacological activity” (J. URIACH & CIA. S.A., priority 1991, dated 1993).

A word on the IC50: it is the concentration needed to halve the response being measured. The low end stands for higher potency, the high end for lower potency. As usually defined, the EC50 is the concentration giving half of the maximal effect. A high value points to a less potent agent.

For assay [1], the system named is portal vein isolated from rat. As to the kind of experiment: Test 1: Inhibition of the contraction induced by noradrenaline in portal vein isolated from rat. The following applies: 0.5 h. The method, then: Test 1: Inhibition of the contraction induced by noradrenaline in portal vein isolated from rat.
Portal vein was extracted from adult male rats (between 200 and 250 g of body weight), which had been stunned by a blow in the head. Portal vein was installed into an isolated organ bath (Letica) containing a physiological saline solution (Hamilton et al., Br. J. Pharmacol., 1986, 88, 103-111) at 37 C and a gas bubbler (5% C02 and 95% 02). Contractions were induced by noradrenaline (3µM) and were reverted after thoroughly washing with physiological saline solution. Portal vein contraction was measured with an isometric force transducer and with an initial tension of 1 g. After two contractions with noradrenaline, performed in order to measure the tissue's basal response, the tested compounds were incubated for 30 minutes and a new contraction was induced.

Assay [2] deals with Spontaneously hypertense rats. As to the kind of experiment: Test 2: Lowering of the arterial pressure in conscious hypertense rats. Conditions: caudal artery, 3 animals, value ± SEM. The assay is classed as in vivo, rat. Here is the method: Test 2: Lowering of the arterial pressure in conscious hypertense rats.
Spontaneously hypertense rats (between 200 and 250 g of body weight) of more than 8 weeks of age have been used. Diastolic and systolic arterial pressure of the rat was measured at the caudal artery using a special sphygnomanometer (Letica 5007 and 5007/4) attached to the animal's tail. To ensure rapid and reliable data, animals were placed in a heating plate at 37 °C, with the aim to produce a vasodilatation that ensured a better fixation of the rat tail to the transducer chamber. During the experiment, rats are conscious and fixed to a clamp. The tested products were administered orally. Arterial pressure was measured every 30 minutes and 10 minutes before the administration of the tested compound. The decrease of the arterial pressure was calculated for each compound at a dose of 1 mg/Kg, using 3 animals.

Assay [3] deals with trachea isolated from guinea pig. Description: Test 3: Direct relaxation of the trachea isolated from guinea pig. Conditions: 50% of the maximum relaxation, maximum = relaxation induced by isoproterenol at 1x10-6 M, cumulative addition. Here is the method: Test 3 -Direct relaxation of the trachea isolated from guinea pig.
This test was performed according to the experimental model described by Emmerson, J. and Mackay, D. (J. Pharm. Pharmacol., 1979, 31, 798). Tracheas were extracted from male guinea pigs of 400 g of body weight, which had been stunned by a blow in the head. Then, tracheas were cut in zigzag and placed into an isolated organ bath (Letica) containing Krebs-Henseleit solution at 37 °C and were bubbled with carbogen (95% 02 and 5% C02). The relaxation of the trachea was measured using an isometric force transducer. The basal tension was 0.5 g.

The compound `Cn1nc(O[C@@H]2c3cc(C#N)ccc3C(=O)C(C)(C)[C@H]2O)ccc1=O` (racemic) [Compound 2, Rac-Trans-2,2-dimethyl-3-hydroxy-4-(6-hydroxy-1-methyl-3-pyridazinyloxy)-1-oxo-1,2,3,4-tetrahydronaphthalen-6-carbonitrile] registered an IC50 in assay [1] of 2.8 µM. In assay [2], the “Pressure Decrease (mm Hg) ± SEM (1 mg/Kg p.o.)” value came out at 112.0 ± 1.0 mm Hg. Further, the 50% effective concentration (EC50) in assay [3] (Cavia porcellus) turned out to be 0.31 µM.
In assay [1], `CC1(C)C(=O)c2ccc(C#N)cc2[C@@H](Oc2ccc(O)nn2)[C@@H]1O` (relative stereo) [Compound 1, Trans-2,2-dimethyl-3-hydroxy-4-(6-hydroxy-3-pyridazinyloxy)-1-oxo-1,2,3,4-tetrahydronaphthalen-6-carbonitrile] yielded an IC50 of 8.8 µM. Also, the “Pressure Decrease (mm Hg) ± SEM (1 mg/Kg p.o.)” value in assay [2] was 116.0 ± 5.9 mm Hg. In addition, the EC50 in assay [3] (Cavia porcellus) worked out at 5.2 µM.
For the compound `C=CCn1nc(O[C@@H]2c3cc(C#N)ccc3C(=O)C(C)(C)[C@H]2O)ccc1=O` (relative stereo) [Compound 5, Trans-2,2-dimethyl-3-hydroxy-4-[6-hydroxy-1-(2-propenyl)-3-pyridazinyloxy]-1-oxo-1,2,3,4-tetrahydronaphthalen-6-carbonitrile], the IC50 in assay [1] amounted to 14 µM. Further, the “Pressure Decrease (mm Hg) ± SEM (1 mg/Kg p.o.)” value in assay [2] stood at 20.5 ± 0.5 mm Hg. A half-maximal effect in assay [3] (Cavia porcellus) (EC50) was put at 3.3 µM.
The matching figures for `CC1(C)C(=O)c2ccc(Br)cc2[C@@H](Oc2ccc(O)nn2)[C@@H]1O` (relative stereo) [Compound 8, Trans-6-bromo-2,2-dimethyl-3-hydroxy-4-(6-hydroxy-3-pyridazinyloxy)-1,2,3,4-tetrahydronaphthalen-1-one]: 0.8 µM, 46.5 ± 0.3 mm Hg and 15.6 µM.
On to `CC1(C)C(=O)c2ccc(C#N)cc2[C@@H](Oc2ccccn2)[C@@H]1O` (relative stereo) [Compound 11, Trans-2,2-dimethyl-3-hydroxy-1-oxo-4-(2-pyridyloxy)-1,2,3,4-tetrahydronaphthalen-6-carbonitrile], for which half-maximal inhibition in assay [1] (IC50) required 25 µM. For the same compound, the “Pressure Decrease (mm Hg) ± SEM (1 mg/Kg p.o.)” value in assay [2] came out at 43.0 ± 16.0 mm Hg. In assay [3] (Cavia porcellus), this compound returned an EC50 of 5.8 µM.
Take `CC1(C)C(=O)c2ccc(C#N)cc2[C@@H](OC2=CC(=O)CC2)[C@@H]1O` (relative stereo) [Compound 12, Trans-2,2-dimethyl-3-hydroxy-1-oxo-4-(3-oxo-1-cyclopent-1-enyloxy)-1,2,3,4-tetrahydronaphthalen-6-carbonitrile]: the “Pressure Decrease (mm Hg) ± SEM (1 mg/Kg p.o.)” value in assay [2] was determined as 50.0 ± 16.0 mm Hg.
Consider `CC1(C)C(=O)c2ccc(C#N)cc2[C@@H](NC(=O)c2ccccn2)[C@@H]1O` (relative stereo) [Compound 14, Trans-2,2-dimethyl-3-hydroxy-1-oxo-4-(2-pyridylcarbonylamino)-1,2,3,4-tetrahydronaphthalen-6-carbonitrile], for which the IC50 in assay [1] was 23 µM. Moreover, the “Pressure Decrease (mm Hg) ± SEM (1 mg/Kg p.o.)” value in assay [2] came to 71.7 ± 14.2 mm Hg.
Compound `CC1(C)C(=O)c2ccc(C#N)cc2[C@@H](NC(=O)c2cccnc2)[C@@H]1O` (relative stereo) [Compound 15, Trans-2,2-dimethyl-3-hydroxy-1-oxo-4-(3-pyridylcarbonylamino)-1,2,3,4-tetrahydronaphthalen-6-carbonitrile] showed an IC50 in assay [1] of 2.8 µM. Moreover, in assay [2], the “Pressure Decrease (mm Hg) ± SEM (1 mg/Kg p.o.)” value was 50.0 ± 9.8 mm Hg. In assay [3] (Cavia porcellus), this compound yielded an EC50 of 4.9 µM.
On to `CC1(C)C(=O)c2ccc(C#N)cc2[C@@H](NC(=O)c2ccoc2)[C@@H]1O` (relative stereo) [Compound 17, Trans-2,2-dimethyl-4-(3-furylcarbonylamino)-3-hydroxy-1-oxo-1,2,3,4-tetrahydronaphthalen-6-carbonitrile], for which, in assay [2], the “Pressure Decrease (mm Hg) ± SEM (1 mg/Kg p.o.)” value was found to be 58.0 ± 17.5 mm Hg.
Turning to `CC1(C)C(=O)c2ccc(C#N)cc2[C@@H](NC(=O)c2ccccc2)[C@@H]1O` (relative stereo) [Compound 18, Trans-2,2-dimethyl-3-hydroxy-1-oxo-4-(phenylcarbonylamino)-1,2,3,4-tetrahydronaphthalen-6-carbonitrile], the “Pressure Decrease (mm Hg) ± SEM (1 mg/Kg p.o.)” value in assay [2] turned out to be 31.0 ± 11.9 mm Hg. In addition, the EC50 in assay [3] (Cavia porcellus) came to 2.1 µM.
In the case of `COc1ccc(C(=O)N[C@@H]2c3cc(C#N)ccc3C(=O)C(C)(C)[C@H]2O)cc1` (relative stereo) [Compound 19, Trans-2,2-dimethyl-3-hydroxy-4-(4-methoxyphenylcarbonylamino)-1-oxo-1,2,3,4-tetrahydronaphthalen-6-carbonitrile], the IC50 in assay [1] came out at 12 µM. Besides, the “Pressure Decrease (mm Hg) ± SEM (1 mg/Kg p.o.)” value in assay [2] is recorded as 46.7 ± 8.6 mm Hg. The compound also displayed an EC50 in assay [3] (Cavia porcellus) of 0.3 µM.
Regarding `Cn1nc(O[C@@H]2c3cc(C#N)ccc3C(=O)C(C)(C)[C@H]2O)ccc1=O` (single isomer, unassigned) [Compound 3, (-)-Trans-2,2-dimethyl-3-hydroxy-4-(6-hydroxy-1-methyl-3-pyridazlnyloxy)-1-oxo-1,2,3,4-tetrahydronaphthalen-6-carbonitrile], in assay [3], the midpoint of the response, the EC50, lay at 0.3 µM.
Compound `Cn1nc(O[C@@H]2c3cc(C#N)ccc3C(=O)C(C)(C)[C@H]2O)ccc1=O` (single isomer, unassigned) [Compound 4, ( + ).Trans-2,2-d i methyl-3-hyd roxy-4-(6-hydroxy-1-methyl-3-pyridazinyloxy)-1-oxo-1,2,3,4-tetrahydronaphthalen-6-carbonitrile] displayed an EC50 in assay [3] of 4.6 µM.
Compound `CC(=NC#N)NC1c2cc(C#N)ccc2C(=O)C(C)(C)C1O` (stereo not drawn) [Compound 22, Trans-4-(N-cyanoacetimidoylamino)-2,2-dimethyl-3-hydroxy-1-oxo-1,2,3,4-tetrahydronaphthalen-6-carbonitrile] returned an EC50 in assay [3] (Cavia porcellus) of 1.8 µM. This counts as single-digit micromolar.
For the compound `CC1(C)C(=O)c2ccc(C#N)cc2C(Nc2cc(Cl)ncn2)C1O` (stereo not drawn) [Compound 23], the IC50 in assay [1] came out at 3.7 µM. The “Pressure Decrease (mm Hg) ± SEM (1 mg/Kg p.o.)” value in assay [2] came out at 45.5 ± 11.5 mm Hg. In addition, a half-maximal effect in assay [3] (Cavia porcellus) (EC50) was put at 4.4 µM.
